Measurements taken from paper PMC9331150 (ACS Medicinal Chemistry Letters, 2022).

Columns and labels:
HCoV 229E 3CL^pro = HCoV 229E 3CL^pro (Human coronavirus 229E, UniProt P0C6U2); assay: biochemical; assay type: biochemical
HCoV 229E = assay type: cell-based
SARS-CoV-2 3CL^pro = SARS-CoV-2 3CL^pro (Severe acute respiratory syndrome coronavirus 2, UniProt P0DTD1); assay type: biochemical
SARS-CoV-2 = conditions: read-out: EC50 against SARS-CoV-2; human bronchial epithelial cells; cited from earlier work
rhinovirus infection = conditions: cited from earlier work

HCoV 229E 3CL^pro, sequence (P0C6U2 2966-3267): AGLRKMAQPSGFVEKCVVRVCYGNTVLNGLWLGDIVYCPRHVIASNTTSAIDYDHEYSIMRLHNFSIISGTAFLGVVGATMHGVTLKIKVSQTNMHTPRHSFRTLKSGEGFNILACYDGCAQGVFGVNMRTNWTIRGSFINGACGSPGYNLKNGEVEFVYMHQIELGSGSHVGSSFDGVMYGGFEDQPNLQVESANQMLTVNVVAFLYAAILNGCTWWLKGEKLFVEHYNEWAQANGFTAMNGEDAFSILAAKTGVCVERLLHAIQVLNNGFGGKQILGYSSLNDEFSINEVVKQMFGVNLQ

CC(C)(C)[C@H](NC(=O)C(F)(F)F)C(=O)N1C[C@H]2[C@@H]([C@H]1C(=O)NCCC1CCNC1=O)C2(C)C (stereo partly drawn) [Compound 1]
IC50 (HCoV 229E 3CL^pro): > 100 µM

CC(C)(C)[C@H](NC(=O)C(F)(F)F)C(=O)N1C[C@H]2[C@@H]([C@H]1C(=O)N[C@H](C=O)C[C@@H]1CCNC1=O)C2(C)C [Compound 2]
fold inhibitory activity improvement for HCoV 229E 3CL^pro compared to nirmatrelvir (HCoV 229E 3CL^pro; IC50 ratio vs nirmatrelvir): 9 fold
fold less potent than nirmatrelvir (EC50, cell-based HCoV 229E) (HCoV 229E): ~4 fold

CC(C)(C)[C@H](NC(=O)C(F)(F)F)C(=O)N1C[C@H]2[C@@H]([C@H]1C(=O)N[C@H](CO)C[C@@H]1CCNC1=O)C2(C)C [Compound 3]
IC50 (HCoV 229E 3CL^pro): > 100 µM

CC(C)(C)[C@H](NC(=O)C(F)(F)F)C(=O)N1C[C@H]2[C@@H]([C@H]1C(=O)N[C@@H](C[C@@H]1CCNC1=O)C(N)=O)C2(C)C [Compound 4]
IC50 (HCoV 229E 3CL^pro): > 100 µM

COC(=O)[C@H](C[C@@H]1CCNC1=O)NC(=O)[C@@H]1[C@@H]2[C@H](CN1C(=O)[C@@H](NC(=O)C(F)(F)F)C(C)(C)C)C2(C)C [Compound 6]
IC50 (HCoV 229E 3CL^pro): > 100 µM

CC(C)(C)[C@H](NC(=O)C(F)(F)F)C(=O)N1C[C@H]2[C@@H]([C@H]1C(=O)N[C@@H](C[C@@H]1CCNC1=O)C(=O)C(=O)NC1CC1)C2(C)C [Compound 8]
fold improvement / more potent than nirmatrelvir (IC50, SARS-CoV-2 and HCoV 229E 3CL^pro) (SARS-CoV-2 3CL^pro): approximately 2 fold
fold less potent than nirmatrelvir (EC50, cell-based HCoV 229E) (HCoV 229E): 11 fold

CC(C)(C)[C@H](NC(=O)C(F)(F)F)C(=O)N1C[C@H]2[C@@H]([C@H]1C(=O)N[C@@H](C[C@@H]1CCNC1=O)C(=O)COCc1ccccc1)C2(C)C [Compound 9]
fold less potent than nirmatrelvir against HCoV 229E 3CL^pro (IC50) (HCoV 229E 3CL^pro): 3 fold
fold less potent than nirmatrelvir (EC50, cell-based HCoV 229E) (HCoV 229E): approximately 2 fold

CC(C)(C)[C@H](NC(=O)C(F)(F)F)C(=O)N1C[C@H]2[C@@H]([C@H]1C(=O)N[C@H](C#N)C[C@@H]1CCNC1=O)C2(C)C [Nirmatrelvir]
EC50 (SARS-CoV-2): 0.075 µM

CCOC(=O)/C=C/[C@H](C[C@@H]1CCNC1=O)NC(=O)[C@@H](CC(=O)[C@@H](NC(=O)c1cc(C)on1)C(C)C)Cc1ccc(F)cc1 [rupintrivir]
efficacy against rhinovirus infection in phase 2 clinical trials (rhinovirus infection): lack of efficacy
